Earlier results in patent US11992485B2, “Analgesic formulations and methods for reduced postoperative nausea and vomiting and enhanced postoperative pain relief” (Hutchison Health, LLC, priority 2013, dated 2024).
Counter-ions that a name gives are not always drawn.

What was measured:
[1] = tested on: Lumbar Laminectomy patients
[2] = tested on: 50 patients
[3] = Table 2: 12 hr., Rahmanian et al.

Q: Which results are given for CCCCN1CCCCC1C(=O)Nc1c(C)cccc1C (stereo not drawn) [Bupivacaine Hydrochloride]?
A: decrease of postoperative surgical pain compared with 30 ml Normal Saline ([1]; 30 mL of 0.25%, infiltrative field block at surgical closure, Rahmanian): no more effective than 30 ml Normal Saline; Patients with MILD PAIN [1, 3]: 0%; Patients with NO PAIN [1, 3]: 0%; VAS scores at rest compared with control Normal Saline group ([1]; subjective linear VAS, Rahmanian): higher; % of patients with NO PONV ([2]; Table 1: first 24-48 hours post-surgery, Patel et al.): 72%; patients who developed PONV ([2]; intrathecal, Patel): 28%
